Results from US8952024B2, “Herbicidal pyrimidone derivatives” (E I du Pont de Nemours and Company, priority 2009, dated 2015).

Legend:
Experiment in all cases: Test B pre-/postemergence plant response
Format in all cases: in vivo
[1] = system: soybean (Glycine max); details: for Soybean plant response rating (0 to 100 scale): 0 is no effect
In short: (§1)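 Compound in solvent + surfactant applied pre-em (loam/sand) or post-em (plants 2–18 cm, peat medium); greenhouse hold 13–15 days; visual 0–100 control score.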

[2] = system: ragweed (common ragweed, Ambrosia elatior); details: for Ragweed plant response rating (0 to 100 scale): 0 is no effect
In short: as §1

[3] = system: green foxtail (Setaria viridis); details: for Foxtail, Green plant response rating (0 to 100 scale): 0 is no effect
In short: as §1

[4] = system: yellow nutsedge (Cyperus esculentus); details: for Nutsedge, Yellow plant response rating (0 to 100 scale): 0 is no effect
In short: as §1

[5] = system: large crabgrass (Digitaria sanguinalis); details: for Crabgrass, Large plant response rating (0 to 100 scale): 0 is no effect
In short: as §1

[6] = system: goosegrass (Eleusine indica); details: for Goosegrass plant response rating (0 to 100 scale): 0 is no effect
In short: as §1

[7] = system: kochia (Kochia scoparia); details: for Kochia plant response rating (0 to 100 scale): 0 is no effect
In short: as §1

[8] = system: woolly cupgrass (Eriochloa villosa); details: for Cupgrass, Woolly plant response rating (0 to 100 scale): 0 is no effect
In short: as §1

[9] = system: bermudagrass (Cynodon dactylon); details: for Bermudagrass plant response rating (0 to 100 scale): 0 is no effect
In short: as §1

[10] = system: velvetleaf (Abutilon theophrasti); details: for Velvetleaf plant response rating (0 to 100 scale): 0 is no effect
In short: as §1

[11] = system: johnsongrass (Sorghum halepense); details: for Johnsongrass plant response rating (0 to 100 scale): 0 is no effect
In short: as §1

[12] = system: lambsquarters (Chenopodium album); details: for Lambsquarters plant response rating (0 to 100 scale): 0 is no effect
In short: as §1

[13] = system: wheat (Triticum aestivum); details: for Wheat plant response rating (0 to 100 scale): 0 is no effect
In short: as §1

[14] = 62 g ai/ha, postemergence, 100 is complete control, 13 to 15 days
[15] = Postemergence, 31 g ai/ha, 0 to 100 scale (0 no effect, 100 complete control)
[16] = Postemergence, 125 g ai/ha, scale 0 to 100 (0 no effect, 100 complete control)
[17] = Postemergence, 250 g ai/ha, scale 0 to 100 (0 no effect, 100 complete control), 13 to 15 days
[18] = 31 g ai/ha, postemergence, scale 0 to 100, 0 is no effect, 100 is complete control
[19] = Postemergence, 125 g ai/ha, visual rating after 13 to 15 days, scale 0 (no effect) to 100 (complete control)
[20] = Postemergence, 250 g ai/ha, scale 0 to 100 (0 no effect, 100 complete control)
[21] = Preemergence, 31 g ai/ha, scale 0 to 100 (0 no effect, 100 complete control)
[22] = Preemergence, 62 g ai/ha, scale 0 to 100 (0 no effect, 100 complete control)
[23] = Preemergence, 125 g ai/ha, scale 0 to 100, 0 no effect, 100 complete control
[24] = Preemergence, 250 g ai/ha, 0 to 100 scale
[25] = 16 g ai/ha, Postemergence, 0 to 100 scale
[26] = Postemergence, 62 g ai/ha, scale 0 to 100 (0 no effect, 100 complete control)

CCCn1c(-c2cccc(Br)c2)ncc(C(=O)C2=C(O)CCCC2=O)c1=O [Compound 141]
Soybean plant response rating (0 to 100 scale) [1, 14]: 70
Plant response rating, Soybean [1, 15]: 70
Plant response rating, Soybean [1, 16]: 75
Plant response rating, Soybean [1, 17]: 90
Ragweed plant response rating (0 to 100 scale) [2, 14]: 75
Plant response rating, Ragweed [2, 15]: 65
Plant response rating, Ragweed [2, 16]: 85
Plant response rating, Ragweed [2, 17]: 95
Foxtail, Green plant response rating (0 to 100 scale) [3, 14]: 75
Plant response rating, Foxtail, Green [3, 15]: 50
Plant response rating, Foxtail, Green [3, 16]: 90
Plant response rating, Foxtail, Green [3, 17]: 90
Nutsedge, Yellow plant response rating (0 to 100 scale) [4, 14]: 10
Plant response rating, Nutsedge, Yellow [4, 15]: 0
Plant response rating, Nutsedge, Yellow [4, 16]: 60
Plant response rating, Nutsedge, Yellow [4, 17]: 60
Crabgrass, Large plant response rating (0 to 100 scale) [5, 14]: 75
Plant response rating, Crabgrass, Large [5, 15]: 70
Plant response rating, Crabgrass, Large [5, 16]: 80
Plant response rating, Crabgrass, Large [5, 17]: 85
Goosegrass plant response rating (0 to 100 scale) [6, 14]: 75
Plant response rating, Goosegrass [6, 15]: 65
Plant response rating, Goosegrass [6, 16]: 75
Plant response rating, Goosegrass [6, 17]: 80
Kochia plant response rating (0 to 100 scale) [7, 14]: 65
Plant response rating, Kochia [7, 15]: 20
Plant response rating, Kochia [7, 16]: 85
Plant response rating, Kochia [7, 17]: 90
Cupgrass, Woolly plant response rating (0 to 100 scale) [8, 14]: 65
Plant response rating, Cupgrass, Woolly [8, 15]: 65
Plant response rating, Cupgrass, Woolly [8, 16]: 65
Plant response rating, Cupgrass, Woolly [8, 17]: 70
Bermudagrass plant response rating (0 to 100 scale) [9, 14]: 85
Plant response rating, Bermudagrass [9, 15]: 80
Plant response rating, Bermudagrass [9, 16]: 85
Plant response rating, Bermudagrass [9, 17]: 90
Velvetleaf plant response rating (0 to 100 scale) [10, 14]: 95
Plant response rating, Velvetleaf [10, 15]: 75
Plant response rating, Velvetleaf [10, 16]: 98
Plant response rating, Velvetleaf [10, 17]: 98
Johnsongrass plant response rating (0 to 100 scale) [11, 14]: 15
Plant response rating, Johnsongrass [11, 15]: 15
Plant response rating, Johnsongrass [11, 16]: 50
Plant response rating, Johnsongrass [11, 17]: 65
Lambsquarters plant response rating (0 to 100 scale) [12, 14]: 80
Plant response rating, Lambsquarters [12, 15]: 80
Plant response rating, Lambsquarters [12, 16]: 98
Plant response rating, Lambsquarters [12, 17]: 100
Wheat plant response rating (0 to 100 scale) [13, 14]: 5
Plant response rating, Wheat [13, 15]: 0
Plant response rating, Wheat [13, 16]: 5
Plant response rating, Wheat [13, 17]: 10

CCCn1c(-c2cccs2)ncc(C(=O)C2=C(O)CCCC2=O)c1=O [Compound 77]
Plant response rating, Soybean [1, 18]: 25
Soybean plant response rating (0 to 100 scale) [1, 14]: 50
Plant response rating, Soybean [1, 19]: 70
Plant response rating, Soybean [1, 20]: 70
Plant response rating, Ragweed [2, 18]: 75
Ragweed plant response rating (0 to 100 scale) [2, 14]: 75
Plant response rating, Ragweed [2, 19]: 80
Plant response rating, Ragweed [2, 20]: 85
Plant response rating, Ragweed [2, 21]: 50
Plant response rating, Ragweed [2, 22]: 75
Plant response rating, Ragweed [2, 23]: 90
Ragweed plant response rating [2, 24]: 95
Plant response rating, Foxtail, Green [3, 18]: 40
Foxtail, Green plant response rating (0 to 100 scale) [3, 14]: 80
Plant response rating, Foxtail, Green [3, 19]: 80
Plant response rating, Foxtail, Green [3, 20]: 80
Plant response rating, Foxtail, Green [3, 21]: 0
Plant response rating, Foxtail, Green [3, 22]: 0
Plant response rating, Foxtail, Green [3, 23]: 0
Foxtail, Green plant response rating [3, 24]: 15
Plant response rating, Nutsedge, Yellow [4, 18]: 45
Nutsedge, Yellow plant response rating (0 to 100 scale) [4, 14]: 60
Plant response rating, Nutsedge, Yellow [4, 19]: 70
Plant response rating, Nutsedge, Yellow [4, 20]: 80
Plant response rating, Nutsedge, Yellow [4, 21]: 75
Plant response rating, Nutsedge, Yellow [4, 22]: 80
Plant response rating, Nutsedge, Yellow [4, 23]: 90
Nutsedge, Yellow plant response rating [4, 24]: 90
Plant response rating, Crabgrass, Large [5, 18]: 55
Crabgrass, Large plant response rating (0 to 100 scale) [5, 14]: 60
Plant response rating, Crabgrass, Large [5, 19]: 75
Plant response rating, Crabgrass, Large [5, 20]: 85
Plant response rating, Crabgrass, Large [5, 21]: 70
Plant response rating, Crabgrass, Large [5, 22]: 98
Plant response rating, Crabgrass, Large [5, 23]: 98
Crabgrass, Large plant response rating [5, 24]: 100
Plant response rating, Goosegrass [6, 18]: 65
Goosegrass plant response rating (0 to 100 scale) [6, 14]: 75
Plant response rating, Goosegrass [6, 19]: 75
Plant response rating, Goosegrass [6, 20]: 85
Plant response rating, Goosegrass [6, 21]: 55
Plant response rating, Goosegrass [6, 22]: 95
Plant response rating, Goosegrass [6, 23]: 98
Goosegrass plant response rating [6, 24]: 98
Plant response rating, Kochia [7, 18]: 75
Kochia plant response rating (0 to 100 scale) [7, 14]: 80
Plant response rating, Kochia [7, 19]: 95
Plant response rating, Kochia [7, 20]: 95
Plant response rating, Kochia [7, 21]: 85
Plant response rating, Kochia [7, 22]: 90
Plant response rating, Kochia [7, 23]: 90
Kochia plant response rating [7, 24]: 95
Plant response rating, Cupgrass, Woolly [8, 18]: 20
Cupgrass, Woolly plant response rating (0 to 100 scale) [8, 14]: 20
Plant response rating, Cupgrass, Woolly [8, 19]: 35
Plant response rating, Cupgrass, Woolly [8, 20]: 40
Plant response rating, Cupgrass, Woolly [8, 21]: 0
Plant response rating, Cupgrass, Woolly [8, 22]: 0
Plant response rating, Cupgrass, Woolly [8, 23]: 0
Cupgrass, Woolly plant response rating [8, 24]: 0
Plant response rating, Bermudagrass [9, 18]: 90
Bermudagrass plant response rating (0 to 100 scale) [9, 14]: 90
Plant response rating, Bermudagrass [9, 19]: 95
Plant response rating, Bermudagrass [9, 20]: 95
Plant response rating, Bermudagrass [9, 21]: 55
Plant response rating, Bermudagrass [9, 22]: 100
Plant response rating, Bermudagrass [9, 23]: 100
Bermudagrass plant response rating ([9]; Preemergence, 250 g ai/ha, 0 to 100 scale, 0 no effect, 100 complete control): 100
Plant response rating, Velvetleaf [10, 18]: 90
Velvetleaf plant response rating (0 to 100 scale) [10, 14]: 98
Plant response rating, Velvetleaf [10, 19]: 98
Plant response rating, Velvetleaf [10, 20]: 100
Plant response rating, Velvetleaf [10, 21]: 95
Plant response rating, Velvetleaf [10, 22]: 100
Plant response rating, Velvetleaf [10, 23]: 100
Velvetleaf plant response rating [10, 24]: 100
Plant response rating, Johnsongrass [11, 18]: 0
Johnsongrass plant response rating (0 to 100 scale) [11, 14]: 0
Plant response rating, Johnsongrass [11, 19]: 10
Plant response rating, Johnsongrass [11, 20]: 10
Plant response rating, Johnsongrass [11, 21]: 0
Plant response rating, Johnsongrass [11, 22]: 0
Plant response rating, Johnsongrass [11, 23]: 0
Johnsongrass plant response rating [11, 24]: 0
Plant response rating, Lambsquarters [12, 18]: 95
Lambsquarters plant response rating (0 to 100 scale) [12, 14]: 98
Plant response rating, Lambsquarters [12, 19]: 98
Plant response rating, Lambsquarters [12, 20]: 98
Plant response rating, Lambsquarters [12, 21]: 98
Plant response rating, Lambsquarters [12, 22]: 98
Plant response rating, Lambsquarters [12, 23]: 100
Lambsquarters plant response rating [12, 24]: 100
Plant response rating, Wheat [13, 18]: 0
Wheat plant response rating (0 to 100 scale) [13, 14]: 5
Plant response rating, Wheat [13, 19]: 10
Plant response rating, Wheat [13, 20]: 10
Plant response rating, Wheat [13, 21]: 0
Plant response rating, Wheat [13, 22]: 0
Plant response rating, Wheat [13, 23]: 0
Wheat plant response rating [13, 24]: 0

CC1(C)CC(=O)C(C(=O)c2cnc(-c3ccccc3)n(-c3ccccc3)c2=O)=C(O)C1 [Compound 225]
Plant response rating, Soybean [1, 25]: 65
Plant response rating, Soybean [1, 15]: 85
Plant response rating, Soybean [1, 26]: 95
Plant response rating, Ragweed [2, 25]: 70
Plant response rating, Ragweed [2, 15]: 75
Plant response rating, Ragweed [2, 26]: 80
Plant response rating, Foxtail, Green [3, 25]: 85
Plant response rating, Foxtail, Green [3, 15]: 85
Plant response rating, Foxtail, Green [3, 26]: 98
Plant response rating, Foxtail, Green [3, 16]: 98
Plant response rating, Nutsedge, Yellow [4, 25]: 5
Plant response rating, Nutsedge, Yellow [4, 15]: 10
Plant response rating, Nutsedge, Yellow [4, 26]: 25
Plant response rating, Nutsedge, Yellow [4, 16]: 25
Plant response rating, Crabgrass, Large [5, 25]: 70
Plant response rating, Crabgrass, Large [5, 15]: 75
Plant response rating, Crabgrass, Large [5, 26]: 85
Plant response rating, Crabgrass, Large [5, 16]: 95
Plant response rating, Goosegrass [6, 25]: 80
Plant response rating, Goosegrass [6, 15]: 85
Plant response rating, Goosegrass [6, 26]: 90
Plant response rating, Goosegrass [6, 16]: 95
Plant response rating, Kochia [7, 25]: 5
Plant response rating, Kochia [7, 15]: 5
Plant response rating, Kochia [7, 26]: 10
Plant response rating, Kochia [7, 16]: 15
Plant response rating, Cupgrass, Woolly [8, 25]: 70
Plant response rating, Cupgrass, Woolly [8, 15]: 75
Plant response rating, Cupgrass, Woolly [8, 26]: 75
Plant response rating, Cupgrass, Woolly [8, 16]: 85
Plant response rating, Bermudagrass [9, 25]: 40
Plant response rating, Bermudagrass [9, 15]: 80
Plant response rating, Bermudagrass [9, 26]: 85
Plant response rating, Bermudagrass [9, 16]: 85
Plant response rating, Velvetleaf [10, 25]: 80
Plant response rating, Velvetleaf [10, 15]: 80
Plant response rating, Velvetleaf [10, 26]: 90
Plant response rating, Johnsongrass [11, 25]: 20
Plant response rating, Johnsongrass [11, 15]: 60
Plant response rating, Johnsongrass [11, 26]: 75
Plant response rating, Johnsongrass [11, 16]: 75
Plant response rating, Lambsquarters [12, 25]: 85
Plant response rating, Lambsquarters [12, 15]: 85
Plant response rating, Lambsquarters [12, 26]: 85
Plant response rating, Lambsquarters [12, 16]: 98
Plant response rating, Wheat [13, 25]: 20
Plant response rating, Wheat [13, 15]: 30
Plant response rating, Wheat [13, 26]: 40
